The values below come from patent US10722514B2 (FLX Bio, Inc., priority 2017, dated 2020).

The structures appear in SMILES notation. Where a name gives a salt, the structure may show the parent alone.

T1 sequence (Q93009 whole entry): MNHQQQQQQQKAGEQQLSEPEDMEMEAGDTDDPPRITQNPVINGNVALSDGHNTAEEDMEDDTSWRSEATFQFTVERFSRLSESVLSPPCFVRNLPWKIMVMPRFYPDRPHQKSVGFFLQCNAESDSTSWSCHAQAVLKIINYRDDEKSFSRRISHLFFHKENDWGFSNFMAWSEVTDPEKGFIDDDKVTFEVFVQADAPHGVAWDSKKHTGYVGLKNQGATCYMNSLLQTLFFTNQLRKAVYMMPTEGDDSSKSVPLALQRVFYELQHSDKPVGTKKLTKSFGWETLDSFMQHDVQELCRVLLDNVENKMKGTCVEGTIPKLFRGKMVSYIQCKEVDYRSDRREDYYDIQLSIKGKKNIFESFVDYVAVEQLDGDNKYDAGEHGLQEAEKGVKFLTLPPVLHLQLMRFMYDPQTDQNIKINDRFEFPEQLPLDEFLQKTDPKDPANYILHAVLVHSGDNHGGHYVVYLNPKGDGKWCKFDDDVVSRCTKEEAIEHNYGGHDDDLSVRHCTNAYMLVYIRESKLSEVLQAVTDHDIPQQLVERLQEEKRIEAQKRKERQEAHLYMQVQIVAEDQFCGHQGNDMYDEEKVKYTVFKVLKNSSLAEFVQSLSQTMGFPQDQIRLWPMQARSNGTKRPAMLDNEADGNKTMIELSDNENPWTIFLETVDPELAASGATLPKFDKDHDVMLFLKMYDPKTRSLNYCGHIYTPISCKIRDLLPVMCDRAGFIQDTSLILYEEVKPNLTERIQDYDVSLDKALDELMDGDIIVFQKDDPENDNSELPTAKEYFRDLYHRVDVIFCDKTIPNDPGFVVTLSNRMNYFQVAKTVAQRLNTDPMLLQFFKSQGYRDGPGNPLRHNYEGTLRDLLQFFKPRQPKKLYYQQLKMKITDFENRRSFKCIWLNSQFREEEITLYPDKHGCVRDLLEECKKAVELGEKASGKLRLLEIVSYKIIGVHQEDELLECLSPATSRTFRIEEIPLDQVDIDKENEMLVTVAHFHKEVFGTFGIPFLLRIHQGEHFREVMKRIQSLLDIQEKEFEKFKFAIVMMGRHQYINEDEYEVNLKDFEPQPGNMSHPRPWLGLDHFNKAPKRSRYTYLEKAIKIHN

One assay addresses T1, recombinant full-length USP7 (Homo sapiens, UniProt Q93009).
T1 construct: A 25 μl reaction volume containing recombinant full-length USP7 (62 pM)
Put plainly: USP7-mediated ubiquitin-rhodamine cleavage assay. It counts as biochemical. To be noted: recombinant full-length USP7 62 pM; ubiquitin-rhodamine 100 nM; 30-minute incubation with compound, 1 hour reaction at room temperature; read-out: Potency: USP7 IC50. The essentials: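 Full-length recombinant USP7 (62 pM) in 20 mM HEPES pH 7.3, 150 mM NaCl, 1 mM TCEP, 125 μg/ml BSA, 1% DMSO, preincubated with compound 30 min at RT. Ubiquitin-rhodamine (100 nM final) cleaved 1 h at RT in the dark, stopped with acetic acid; rhodamine fluorescence read, IC50 by 4-parameter nonlinear fit.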
The term IC50 denotes the midpoint of a concentration-inhibition curve. Take `Cc1cc(Cl)cc(-c2ncnc3cc(CN4C(=O)C5C(C4=O)C5(C)C)sc23)c1O[C@@H]1C[C@@H]2C[C@H]1N(C)C2` (stereo partly drawn) [Example 390, 3-[[4-[5-chloro-3-methyl-2-[[(1S,4R,5R)-3-methyl-3-azabicyclo[2.2.1]heptan-5-yl]oxy]phenyl]thieno[3,2-d]pyrimidin-6-yl]methyl]-6,6-dimethyl-3-azabicyclo[3.1.0]hexane-2,4-dione dihydrochloride]: the IC50 was less than 1000 nM.

As for `CCC(O)c1cc2nccc(-c3cc(Cl)cc(C)c3O[C@@H]3CN[C@H](C(C)(C)O)C3)c2s1` (stereo partly drawn) [Example 86, 1-(7-(5-Chloro-2-(((3S,5S)-5-(2-hydroxypropan-2-yl)pyrrolidin-3-yl)oxy)-3-methylphenyl)thieno[3,2-b]pyridin-2-yl)propan-1-ol], the IC50 is 1000 to 10000 nM.

On to `CN[C@H]1CC[C@H](Oc2c(C)cc(Cl)cc2-c2ccnc3cc(CO)sc23)CC1` [Example 179, (7-(5-Chloro-3-methyl-2-(((1r,4r)-4-(methylamino)cyclohexyl)oxy)phenyl)thieno[3,2-b]pyridin-2-yl)methanol], for which the IC50 was 10000 to 30000 nM.

For the compound `Cc1cc(Cl)cc(-c2ccnc3cc(CN4C(=O)C5CCCCC5C4=O)sc23)c1O[C@@H]1CNC[C@@H]1F` (stereo partly drawn) [Example 142, 2-((7-(5-Chloro-2-(((3R,4S)-4-fluoropyrrolidin-3-yl)oxy)-3-methylphenyl)thieno[3,2-b]pyridin-2-yl)methyl)hexahydro-1H-isoindole-1,3(2H)-dione], the IC50 is less than 1000 nM.

Consider `Cc1cc(Cl)cc(-c2ccnc3cc(CN4C(=O)C5CC5C4=O)sc23)c1O[C@@H]1CNC[C@@H]1F` (stereo partly drawn) [Example 300, 3-[[7-[5-chloro-2-[(3R,4S)-4-fluoropyrrolidin-3-yl]oxy-3-methyl-phenyl]thieno[3,2-b]pyridin-2-yl]methyl]-3-azabicyclo[3.1.0]hexane-2,4-dione], for which the IC50 was less than 1000 nM.

Turning to `Cc1cc(Cl)cc(-c2ccnc3cc(Cn4c(=O)ccn(C)c4=O)sc23)c1O[C@H]1CCCNC1` [Example 161, (S)-3-((7-(5-Chloro-3-methyl-2-(piperidin-3-yloxy)phenyl)thieno[3,2-b]pyridin-2-yl)methyl)-1-methylpyrimidine-2,4(1H,3H)-dione], the IC50 was less than 1000 nM.

On to `CCC(O)c1cc2ncnc(-c3cc(Cl)cc(C)c3OC3CCNCC3)c2s1` (stereo not shown) [Example 181, 1-(4-(5-Chloro-3-methyl-2-(piperidin-4-yloxy)phenyl)thieno[3,2-d]pyrimidin-6-yl)propan-1-ol], for which the IC50 was 1000 to 10000 nM.

With `Cc1cc(Cl)cc(-c2ccnc3cc(CN4C(=O)CCC4=O)sc23)c1O[C@@H]1CN(CC(C)(C)C)C[C@@H]1F` [Example 336, 1-[[7-[5-chloro-2-[(3R,4S)-1-(2,2-dimethylpropyl)-4-fluoro-pyrrolidin-3-yl]oxy-3-methyl-phenyl]thieno[3,2-b]pyridin-2-yl]methyl]pyrrolidine-2,5-dione], the IC50 was less than 1000 nM.

`Cc1cc(Cl)cc(-c2ccnc3cc(CN4C(=O)CCC4=O)sc23)c1OCC12CNCC1C2` (stereo not shown) [Example 52, 1-((7-(2-((3-Azabicyclo[3.1.0]hexan-1-yl)methoxy)-5-chloro-3-methylphenyl)thieno[3,2-b]pyridin-2-yl)methyl)pyrrolidine-2,5-dione]: the IC50 is less than 1000 nM.

The same assay, now with this note: recombinant full-length USP7 62 pM; ubiquitin-rhodamine 100 nM; 30-minute pre-incubation, 1 hour reaction at room temperature; read-out: Potency (USP7 IC50).
Regarding `Cc1cc(Cl)cc(-c2ccnc3cc(CN4C(=O)C5C(C4=O)C5(C)C)sc23)c1O[C@H]1CCCNC1` (stereo partly drawn) [Example 436, 3-[[7-[5-chloro-3-methyl-2-[[(3S)-3-piperidyl]oxy]phenyl]thieno[3,2-b]pyridin-2-yl]methyl]-6,6-dimethyl-3-azabicyclo[3.1.0]hexane-2,4-dione dihydrochloride], the IC50 was less than 1000 nM.

For the compound `Cc1cc(Cl)cc(-c2ccnc3cc(Cn4c(=O)ccn(C)c4=O)sc23)c1OC1CCCNCC1F` (stereo not shown) [Example 471, 3-[[7-[5-chloro-2-(3-fluoroazepan-4-yl)oxy-3-methyl-phenyl]thieno[3,2-b]pyridin-2-yl]methyl]-1-methyl-pyrimidine-2,4-dione], the IC50 is less than 1000 nM.

In the case of `Cc1cc(Cl)cc(-c2ccnc3cc(Cn4c(=O)ccn(C)c4=O)sc23)c1O[C@H]1CN[C@H](C(=O)O)C1` [Example 600, (2S,4R)-4-[4-chloro-2-methyl-6-[2-[(3-methyl-2,6-dioxo-pyrimidin-1-yl)methyl]thieno[3,2-b]pyridin-7-yl]phenoxy]pyrrolidine-2-carboxylic acid], the concentration for half-maximal inhibition (IC50) was 1000 to 10000 nM.

With `Cc1c(F)c(Cl)cc(-c2ccnc3cc(Cn4c(=O)ccn(C)c4=O)sc23)c1O[C@H]1CCCNC1` [Example 435, 3-[[7-[5-chloro-4-fluoro-3-methyl-2-[[(3S)-3-piperidyl]oxy]phenyl]thieno[3,2-b]pyridin-2-yl]methyl]-1-methyl-pyrimidine-2,4-dione dihydrochloride], the IC50 was in the range of 1000 to 10000 nM.

As to `COC[C@@H]1C[C@H](Oc2c(C)cc(Cl)cc2-c2ccnc3cc(Cn4c(=O)ccn(CC(F)(F)F)c4=O)sc23)CN1` [Example 647, 3-[[7-[5-chloro-2-[(3S,5S)-5-(methoxymethyl)pyrrolidin-3-yl]oxy-3-methyl-phenyl]thieno[3,2-b]pyridin-2-yl]methyl]-1-(2,2,2-trifluoroethyl)pyrimidine-2,4-dione], the half-maximal inhibitory concentration (IC50) is less than 1000 nM.

`CCn1ccc(=O)n(Cc2cc3nccc(-c4cc(Cl)cc(C)c4O[C@H]4CCCNC4)c3s2)c1=O` [Example 423, 3-[[7-[5-chloro-3-methyl-2-[[(3S)-3-piperidyl]oxy]phenyl]thieno[3,2-b]pyridin-2-yl]methyl]-1-ethyl-pyrimidine-2,4-dione]: the IC50 was less than 1000 nM.

As for `Cc1cc(Cl)cc(-c2ccnc3cc(Cn4c(=O)ccn(CC(F)(F)F)c4=O)sc23)c1O[C@H]1CCCN(C(=O)C(F)(F)F)C1` [Example 659, 3-[[7-[5-chloro-3-methyl-2-[[(3S)-1-(2,2,-trifluoroacetyl)-3-piperidyl]oxy]phenyl]thieno[3,2-b]pyridin-2-yl]methyl]-1-(2,2,2-trifluoroethyl)pyrimidine-2,4-dione], the IC50 was less than 1000 nM.

Consider `Cc1cc(Cl)cc(-c2ccnc3cc(Cn4c(=O)ccn(CC(F)(F)F)c4=O)sc23)c1O[C@@H]1CN[C@H](C(C)(C)O)C1` [Example 634, 3-[[7-[5-chlloro-2-[(3S,5S)-5-(1-hydroxy-1-methyl-ethyl)pyrrolidin-3-yl]oxy-3-methyl-phenyl]thieno[3,2-b]pyridin-2-yl]methyl]-1-(2,2,2-trifluoroethyl)pyrimidine-2,4-dione], for which the IC50 is less than 1000 nM.

On to `Cc1cc(Cl)cc(-c2ccnc3cc(Cn4c(=O)c(F)cn(C(C)C)c4=O)sc23)c1O[C@H]1CCCNC1` [Example 547, 3-[[7-[5-chloro-3-methyl-2-[[(3S)-3-piperidyl]oxy]phenyl]thieno[3,2-b]pyridin-2-yl]methyl]-5-fluoro-1-isopropyl-pyrimidine-2,4-dione], for which the IC50 was less than 1000 nM.

`Cc1cc(Cl)cc(-c2ccnc3cc(Cn4c(=O)ccn(C)c4=O)sc23)c1OC1CC(NCCO)C1` (stereo not shown) [Example 532, 3-[[7-[5-chloro-2-[3-(2-hydroxyethylamino)cyclobutoxy]-3-methyl-phenyl]thieno[3,2-b]pyridin-2-yl]methyl]-1-methyl-pyrimidine-2,4-dione; 2,2,2-trifluoroacetic acid]: the IC50 is less than 1000 nM.
